Laboratory results: paper PMC8699473, “An Easily Expandable Multi-Drug LC-MS Assay for the Simultaneous Quantification of 57 Oral Antitumor Drugs in Human Plasma” (Cancers, 2021)

How the values were obtained:
[1] = Freeze-thaw stability in spiked pooled human plasma; type: physicochemical
[2] = Autosampler stability of ready for injection samples; type: physicochemical, human
[3] = set-up: method as in supplement references [1-55] as printed per drug; details: minimum steady-state blood plasma concentration after multiple dose administration; ref supplement references [1-55] per drug; cited from earlier work
[4] = Long-term stability in spiked pooled human plasma
[5] = Short-term stability in spiked pooled human plasma (bench-top, 4 °C, 56 °C)

CNCc1ccc(-c2[nH]c3cc(F)cc4c3c2CCNC4=O)cc1 [Rucaparib]
Freeze-Thaw Accuracy [%] ([1]; validation standard 2xLLOV): 93.7%
Freeze-Thaw Accuracy [%] ([1]; validation standard LLOV): 104.4%
Freeze-Thaw Accuracy [%] ([1]; validation standard MOV): 97.8%
Freeze-Thaw Accuracy [%] ([1]; validation standard ULOV): 95.5%
Autosampler (24h, 4°C) Accuracy [%] ([2]; validation standard 2xLLOV): 98.1%
Autosampler (72h, 4°C) Accuracy [%] ([2]; validation standard 2xLLOV): 96.4%
Autosampler (24h, 4°C) Accuracy [%] ([2]; validation standard LLOV): 104.5%
Autosampler (72h, 4°C) Accuracy [%] ([2]; validation standard LLOV): 104.1%
Autosampler (24h, 4°C) Accuracy [%] ([2]; validation standard MOV): 104.6%
Autosampler (72h, 4°C) Accuracy [%] ([2]; validation standard MOV): 103.8%
Autosampler (24h, 4°C) Accuracy [%] ([2]; validation standard ULOV): 100.1%
Autosampler (72h, 4°C) Accuracy [%] ([2]; validation standard ULOV): 102.4%
cmin [3]: 1754 ng/mL
Long-term stability, 1 month, -20°C Accuracy [%] ([4]; validation standard 2xLLOV): 95.4%
Long-term stability, 1 month, -80°C Accuracy [%] ([4]; validation standard 2xLLOV): 89.7%
Long-term stability, 2 month, -20°C Accuracy [%] ([4]; validation standard 2xLLOV): 100.7%
Long-term stability, 2 month, -80°C Accuracy [%] ([4]; validation standard 2xLLOV): 99.7%
Long-term stability, 3 month, -20°C Accuracy [%] ([4]; validation standard 2xLLOV): 95.9%
Long-term stability, 3 month, -80°C Accuracy [%] ([4]; validation standard 2xLLOV): 94.7%
Long-term stability, 6 weeks, 4°C, without daylight Accuracy [%] ([4]; validation standard 2xLLOV): 93.1%
Long-term stability, 1 month, -20°C Accuracy [%] ([4]; validation standard LLOV): 104.7%
Long-term stability, 1 month, -80°C Accuracy [%] ([4]; validation standard LLOV): 102.1%
Long-term stability, 2 month, -20°C Accuracy [%] ([4]; validation standard LLOV): 115.1%
Long-term stability, 2 month, -80°C Accuracy [%] ([4]; validation standard LLOV): 112.2%
Long-term stability, 3 month, -20°C Accuracy [%] ([4]; validation standard LLOV): 109.6%
Long-term stability, 3 month, -80°C Accuracy [%] ([4]; validation standard LLOV): 108.0%
Long-term stability, 6 weeks, 4°C, without daylight Accuracy [%] ([4]; validation standard LLOV): 104.4%
Long-term stability, 1 month, -20°C Accuracy [%] ([4]; validation standard MOV): 98.5%
Long-term stability, 1 month, -80°C Accuracy [%] ([4]; validation standard MOV): 95.5%
Long-term stability, 2 month, -20°C Accuracy [%] ([4]; validation standard MOV): 104.6%
Long-term stability, 2 month, -80°C Accuracy [%] ([4]; validation standard MOV): 102.1%
Long-term stability, 3 month, -20°C Accuracy [%] ([4]; validation standard MOV): 101.6%
Long-term stability, 3 month, -80°C Accuracy [%] ([4]; validation standard MOV): 97.2%
Long-term stability, 6 weeks, 4°C, without daylight Accuracy [%] ([4]; validation standard MOV): 103.5%
Long-term stability, 1 month, -20°C Accuracy [%] ([4]; validation standard ULOV): 99.8%
Long-term stability, 1 month, -80°C Accuracy [%] ([4]; validation standard ULOV): 94.8%
Long-term stability, 2 month, -20°C Accuracy [%] ([4]; validation standard ULOV): 104.3%
Long-term stability, 2 month, -80°C Accuracy [%] ([4]; validation standard ULOV): 102.7%
Long-term stability, 3 month, -20°C Accuracy [%] ([4]; validation standard ULOV): 100.6%
Long-term stability, 3 month, -80°C Accuracy [%] ([4]; validation standard ULOV): 98.3%
Long-term stability, 6 weeks, 4°C, without daylight Accuracy [%] ([4]; validation standard ULOV): 100.2%
Short-time stability (1h, 56°C) Accuracy [%] ([5]; validation standard 2xLLOV): 56.7%
Short-time stability (24h, 4°C, without daylight) Accuracy [%] ([5]; validation standard 2xLLOV): 94.0%
Short-time stability (24h, RT, with daylight) Accuracy [%] ([5]; validation standard 2xLLOV): 94.3%
Short-time stability (24h, RT, without daylight) Accuracy [%] ([5]; validation standard 2xLLOV): 95.8%
Short-time stability (1h, 56°C) Accuracy [%] ([5]; validation standard LLOV): 60.9%
Short-time stability (24h, 4°C, without daylight) Accuracy [%] ([5]; validation standard LLOV): 106.8%
Short-time stability (24h, RT, with daylight) Accuracy [%] ([5]; validation standard LLOV): 100.0%
Short-time stability (24h, RT, without daylight) Accuracy [%] ([5]; validation standard LLOV): 99.7%
Short-time stability (1h, 56°C) Accuracy [%] ([5]; validation standard MOV): 52.2%
Short-time stability (24h, 4°C, without daylight) Accuracy [%] ([5]; validation standard MOV): 102.0%
Short-time stability (24h, RT, with daylight) Accuracy [%] ([5]; validation standard MOV): 100.5%
Short-time stability (24h, RT, without daylight) Accuracy [%] ([5]; validation standard MOV): 102.1%
Short-time stability (1h, 56°C) Accuracy [%] ([5]; validation standard ULOV): 46.1%
Short-time stability (24h, 4°C, without daylight) Accuracy [%] ([5]; validation standard ULOV): 96.9%
Short-time stability (24h, RT, with daylight) Accuracy [%] ([5]; validation standard ULOV): 98.9%
Short-time stability (24h, RT, without daylight) Accuracy [%] ([5]; validation standard ULOV): 99.1%

CCOc1cc2ncc(C#N)c(Nc3ccc(OCc4ccccn4)c(Cl)c3)c2cc1NC(=O)/C=C/CN(C)C [Neratinib]
Freeze-Thaw Accuracy [%] ([1]; validation standard 2xLLOV): 82.2%
Freeze-Thaw Accuracy [%] ([1]; validation standard LLOV): 64.7%
Freeze-Thaw Accuracy [%] ([1]; validation standard MOV): 88.9%
Freeze-Thaw Accuracy [%] ([1]; validation standard ULOV): 87.2%
Autosampler (24h, 4°C) Accuracy [%] ([2]; validation standard 2xLLOV): 95.7%
Autosampler (72h, 4°C) Accuracy [%] ([2]; validation standard 2xLLOV): 100.1%
Autosampler (24h, 4°C) Accuracy [%] ([2]; validation standard LLOV): 75.2%
Autosampler (72h, 4°C) Accuracy [%] ([2]; validation standard LLOV): 73.8%
Autosampler (24h, 4°C) Accuracy [%] ([2]; validation standard MOV): 103.1%
Autosampler (72h, 4°C) Accuracy [%] ([2]; validation standard MOV): 100.5%
Autosampler (24h, 4°C) Accuracy [%] ([2]; validation standard ULOV): 93.3%
Autosampler (72h, 4°C) Accuracy [%] ([2]; validation standard ULOV): 96.0%
cmin [3]: 52.6 ng/mL
Long-term stability, 1 month, -20°C Accuracy [%] ([4]; validation standard 2xLLOV): 79.9%
Long-term stability, 1 month, -80°C Accuracy [%] ([4]; validation standard 2xLLOV): 84.9%
Long-term stability, 2 month, -20°C Accuracy [%] ([4]; validation standard 2xLLOV): 67.5%
Long-term stability, 2 month, -80°C Accuracy [%] ([4]; validation standard 2xLLOV): 94.6%
Long-term stability, 3 month, -20°C Accuracy [%] ([4]; validation standard 2xLLOV): 70.3%
Long-term stability, 3 month, -80°C Accuracy [%] ([4]; validation standard 2xLLOV): 90.2%
Long-term stability, 6 weeks, 4°C, without daylight Accuracy [%] ([4]; validation standard 2xLLOV): 7.4%
Long-term stability, 1 month, -20°C Accuracy [%] ([4]; validation standard LLOV): 66.9%
Long-term stability, 1 month, -80°C Accuracy [%] ([4]; validation standard LLOV): 71.8%
Long-term stability, 2 month, -20°C Accuracy [%] ([4]; validation standard LLOV): 77.1%
Long-term stability, 2 month, -80°C Accuracy [%] ([4]; validation standard LLOV): 88.3%
Long-term stability, 3 month, -20°C Accuracy [%] ([4]; validation standard LLOV): 50.3%
Long-term stability, 3 month, -80°C Accuracy [%] ([4]; validation standard LLOV): 81.4%
Long-term stability, 1 month, -20°C Accuracy [%] ([4]; validation standard MOV): 82.9%
Long-term stability, 1 month, -80°C Accuracy [%] ([4]; validation standard MOV): 84.6%
Long-term stability, 2 month, -20°C Accuracy [%] ([4]; validation standard MOV): 81.2%
Long-term stability, 2 month, -80°C Accuracy [%] ([4]; validation standard MOV): 92.9%
Long-term stability, 3 month, -20°C Accuracy [%] ([4]; validation standard MOV): 79.5%
Long-term stability, 3 month, -80°C Accuracy [%] ([4]; validation standard MOV): 92.5%
Long-term stability, 6 weeks, 4°C, without daylight Accuracy [%] ([4]; validation standard MOV): 10.0%
Long-term stability, 1 month, -20°C Accuracy [%] ([4]; validation standard ULOV): 79.7%
Long-term stability, 1 month, -80°C Accuracy [%] ([4]; validation standard ULOV): 78.2%
Long-term stability, 2 month, -20°C Accuracy [%] ([4]; validation standard ULOV): 82.8%
Long-term stability, 2 month, -80°C Accuracy [%] ([4]; validation standard ULOV): 88.3%
Long-term stability, 3 month, -20°C Accuracy [%] ([4]; validation standard ULOV): 75.5%
Long-term stability, 3 month, -80°C Accuracy [%] ([4]; validation standard ULOV): 91.8%
Long-term stability, 6 weeks, 4°C, without daylight Accuracy [%] ([4]; validation standard ULOV): 8.5%
Short-time stability (1h, 56°C) Accuracy [%] ([5]; validation standard 2xLLOV): -7.9%
Short-time stability (24h, 4°C, without daylight) Accuracy [%] ([5]; validation standard 2xLLOV): 79.9%
Short-time stability (24h, RT, with daylight) Accuracy [%] ([5]; validation standard 2xLLOV): 23.2%
Short-time stability (24h, RT, without daylight) Accuracy [%] ([5]; validation standard 2xLLOV): 25.4%
Short-time stability (1h, 56°C) Accuracy [%] ([5]; validation standard LLOV): -88.6%
Short-time stability (24h, 4°C, without daylight) Accuracy [%] ([5]; validation standard LLOV): 65.9%
Short-time stability (24h, RT, with daylight) Accuracy [%] ([5]; validation standard LLOV): -37.5%
Short-time stability (24h, RT, without daylight) Accuracy [%] ([5]; validation standard LLOV): -39.1%
Short-time stability (1h, 56°C) Accuracy [%] ([5]; validation standard MOV): 26.0%
Short-time stability (24h, 4°C, without daylight) Accuracy [%] ([5]; validation standard MOV): 89.7%
Short-time stability (24h, RT, with daylight) Accuracy [%] ([5]; validation standard MOV): 37.9%
Short-time stability (24h, RT, without daylight) Accuracy [%] ([5]; validation standard MOV): 39.2%
Short-time stability (1h, 56°C) Accuracy [%] ([5]; validation standard ULOV): 21.9%
Short-time stability (24h, 4°C, without daylight) Accuracy [%] ([5]; validation standard ULOV): 81.3%
Short-time stability (24h, RT, with daylight) Accuracy [%] ([5]; validation standard ULOV): 28.5%
Short-time stability (24h, RT, without daylight) Accuracy [%] ([5]; validation standard ULOV): 31.5%
